Measured values taken from PubChem BioAssay AID179 (DTP/NCI, 2004).

Tested on: CEM cells HIV-1 protection, formazan growth assay
Experiment: NCI AIDS Antiviral Assay
Conditions: for IC50: measured here: growth of uninfected CEM cells
Procedure, shortened: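 Screen of anti-HIV-1 activity in human CEM cells using a formazan-based growth measurement at five drug concentrations. Hits with 50% or greater protection were repeated, and confirmation required reproducible complete protection.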

O=C1SS(=O)c2ccccc21 (centres undefined)
EC50: > 200 µM | IC50: 95.5 µM

Cc1nc2c(-c3ccccc3)[nH]c(C)c2c(=O)o1
EC50: > 200 µM | IC50: 69.2 µM
